The record followed here is ChEMBL document CHEMBL5352481, “Discovery of small-molecule protein stabilizers toward exogenous alpha-l-iduronidase to reduce the accumulated heparan sulfate in mucopolysaccharidosis type I cells” (Eur J Med Chem, 2023).

pIC50, pKi: −log10 of the molar value. The source made the active and inactive calls. The rule behind the calls is not given here.

The target of assay [1] is T1, Alpha-L-iduronidase (Homo sapiens, UniProt P35475).
T1 sequence (P35475 whole entry): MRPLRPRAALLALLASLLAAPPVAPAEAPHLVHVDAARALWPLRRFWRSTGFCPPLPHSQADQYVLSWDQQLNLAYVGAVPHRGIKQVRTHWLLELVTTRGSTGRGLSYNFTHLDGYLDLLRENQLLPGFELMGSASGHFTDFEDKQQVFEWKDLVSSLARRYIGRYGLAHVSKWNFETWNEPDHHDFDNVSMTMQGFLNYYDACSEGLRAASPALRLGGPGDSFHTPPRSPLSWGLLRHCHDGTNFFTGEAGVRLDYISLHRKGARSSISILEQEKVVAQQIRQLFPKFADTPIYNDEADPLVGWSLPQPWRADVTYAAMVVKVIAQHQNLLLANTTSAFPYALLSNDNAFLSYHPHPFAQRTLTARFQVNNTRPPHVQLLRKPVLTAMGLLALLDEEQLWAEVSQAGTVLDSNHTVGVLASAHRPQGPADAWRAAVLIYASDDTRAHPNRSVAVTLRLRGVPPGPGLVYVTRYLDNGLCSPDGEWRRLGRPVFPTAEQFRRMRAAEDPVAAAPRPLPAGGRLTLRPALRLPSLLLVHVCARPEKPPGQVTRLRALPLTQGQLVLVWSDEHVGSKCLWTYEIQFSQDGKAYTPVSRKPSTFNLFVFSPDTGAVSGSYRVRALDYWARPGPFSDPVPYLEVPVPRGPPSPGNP
Nature of the assay: Inhibition of human recombinant alpha-L-iduronidase using 4-methylumbelliferyl-alpha-iduronide as fluorogenic substrate.

The target in assay [2] is T2, Alpha-L-iduronidase (Homo sapiens) (UniProt P35475).
T2 sequence (whole entry): T1 sequence (P35475 whole entry)
Description: Stabilization of human recombinant alpha-L-iduronidase in human GM01391 cells assessed as increase in IDUA activity at 100 uM incubated for 1 day followed by 1 day washout. The format is cell-based.

In assay [3] the target is T1, Alpha-L-iduronidase. Description: Inhibition of human seminal fluid alpha-L-iduronidase using 4-methylumbelliferyl-alpha-L-idosiduronic acid as substrate incubated for 1 hr by fluorescence based assay.
Assay [4] deals with T2, Alpha-L-iduronidase (Homo sapiens). Description: Stabilization of human recombinant alpha-L-iduronidase in human GM01391 cells assessed as fold increase in IDUA activity at 100 uM incubated for 1 day followed by 1 day washout relative to control. The format is cell-based.
The target is the same in assay [5]. Description: Inhibition of human recombinant alpha-L-iduronidase using 4-methylumbelliferyl-alpha-iduronide as fluorogenic substrate at 250 uM relative to control.
For assay [6], the target named is T1, Alpha-L-iduronidase. Nature of the assay: Inhibition of alpha-L-iduronidase (unknown origin) assessed as inhibition constant.
Assay [7] deals with T1, Alpha-L-iduronidase. Description: Inhibition of human alpha-L-iduronidase using 4-methylumbelliferyl-alpha-L-iduronide as substrate assessed as inhibition constant.
Assay [8] has as its target T2, Alpha-L-iduronidase (Homo sapiens). Nature of the assay: Inhibition of human recombinant alpha-L-iduronidase using 4-methylumbelliferyl-alpha-L-iduronide as fluorogenic substrate at 0.1 mM relative to control.
Assay [9] concerns the target T1, Alpha-L-iduronidase. Description: Inhibition of human recombinant alpha-L-iduronidase using 4-methylumbelliferyl-alpha-iduronide as fluorogenic substrate assessed as inhibition constant by Lineweaver-Burk plot analysis.
The target in assay [10] is T2, Alpha-L-iduronidase (Homo sapiens). Nature of the assay: Stabilization of human recombinant alpha-L-iduronidase in human GM01391 cells assessed as fold increase in IDUA activity at 500 uM incubated for 1 day followed by 1 day washout relative to control. The format is cell-based.
The target is the same in assay [11]. Description: Stabilization of human recombinant alpha-L-iduronidase in human GM01391 cells assessed as fold increase in IDUA activity at 500 uM measured after 9 days relative to control. The settings on record: time 9.0 day. The class given is cell-based.
The target is the same in assay [12]. Description: Stabilization of human recombinant alpha-L-iduronidase in human GM01391 cells assessed as reduction in heparan sulfate level at 500 uM incubated for 1 day followed by 1 day washout. The format is cell-based.
Assay [13] has the same target. Nature of the assay: Stabilization of human recombinant alpha-L-iduronidase in human GM02846 cells assessed as increase in IDUA activity incubated for 1 day followed by 1 day washout. The class given is cell-based. The settings on record: dose 10-500 µM.
The target is the same in assay [14]. Description: Stabilization of human recombinant alpha-L-iduronidase in human GM02846 cells assessed as reduction in heparan sulfate level at 10 to 500 uM incubated for 1 day followed by 1 day washout. The class given is cell-based. The following applies: dose 10-500 µM.

For the compound `O=C(Cc1ccc(OP(=O)(O)O)cc1)NCC[C@@H]1O[C@@H](C(=O)O)[C@@H](O)[C@H](O)[C@H]1O`, at Alpha-L-iduronidase [1], the pIC50 is 5.27. Further, the outcome in [2] was Active.
`O=C1O[C@H]([C@@H](O)C(=O)O)[C@H](O)[C@H]1O` gave a pIC50 against Alpha-L-iduronidase [3] of 4.40.
`O=C(Cc1cccc(OP(=O)(O)O)c1)NCC[C@@H]1O[C@@H](C(=O)O)[C@@H](O)[C@H](O)[C@H]1O`: the pIC50 on Alpha-L-iduronidase [1] is 5.40. The fold change (FC) in [4] was determined as 1.6.
For the compound `NCC[C@@H]1N[C@@H](C(=O)O)[C@@H](O)[C@H](O)[C@H]1O`, in [5], the inhibition was less than 10%. The outcome in assay [2] was inactive.
As for `O=C(O)[C@]1(F)O[C@@H](F)[C@H](O)[C@@H](O)[C@@H]1O`, the negative logarithm of the Ki (pKi) on Alpha-L-iduronidase [6] is 5.92.
For `O=C(Cc1cccc(OP(=O)(O)O)c1)NCC[C@@H]1N[C@@H](C(=O)O)[C@@H](O)[C@H](O)[C@H]1O`, the inhibition in assay [5] was less than 10%. Besides, in assay [2], the outcome was inactive.
Consider `O=C1N[C@@H](C(=O)O)[C@@H](O)[C@H](O)[C@H]1O`, for which, on Alpha-L-iduronidase [7], the pKi is 4.03.
As to `O=C(O)[C@H]1[C@@H](O)[C@H](O)[C@@H](O)c2nnnn21`, at Alpha-L-iduronidase [7], the pKi was 2.89.
On to `O=C(/C=C/c1ccccc1)NCc1cn([C@@H]2O[C@@H](C(=O)O)[C@@H](O)[C@H](O)[C@H]2O)nn1`, for which, in assay [8], the inhibition amounted to 74%.
For `NCC[C@@H]1O[C@@H](C(=O)O)[C@@H](O)[C@H](O)[C@H]1O`, the pIC50 at Alpha-L-iduronidase [1] was 5.17. The pKi at Alpha-L-iduronidase [9] was 5.40. Also, the fold change (FC) in [4] was 1.4; in [10] it was 3; in assay [11] it was greater than 1.6. The result in [12] and in assay [14] was Active. Also, in [13], the Activity result was “Dose-Dependent Effect”.
Turning to `O=C(Cc1ccccc1OP(=O)(O)O)NCC[C@@H]1O[C@@H](C(=O)O)[C@@H](O)[C@H](O)[C@H]1O`, at Alpha-L-iduronidase [1], the pIC50 was 6.00. Moreover, the result in assay [2] was inactive.
For the compound `O=C(Cc1ccc(OP(=O)(O)O)cc1)NCC[C@@H]1N[C@@H](C(=O)O)[C@@H](O)[C@H](O)[C@H]1O`, the inhibition in assay [5] was less than 10%. Besides, the result in assay [2] was inactive.
As for `O=C(Cc1ccccc1OP(=O)(O)O)NCC[C@@H]1N[C@@H](C(=O)O)[C@@H](O)[C@H](O)[C@H]1O`, the inhibition in assay [5] is 43%. Besides, the outcome in [2] was inactive.

One may read the pIC50 as the negative decadic logarithm of the IC50, by convention in mol/L. For orientation: inhibition means the drop in the measured response relative to a control, in per cent. In general, pKi refers to the Ki on a negative log10 scale, so that one unit is a factor of ten.
